# Counter-ions that a name gives are not always drawn.
# Legend:
# [1] = test system: A431 cells (human epidermoid carcinoma); test: In vitro tumor cell proliferation assay (Cell Titer-Glo luminescent cell viability), A431 cells; assay type: cell-based; settings: A-431, 72 h drug exposure, ATP luminescence readout, read-out: IC50, anti-proliferative activity (inhibition of cell proliferation) in A431 cells
# Description: (§1) The tumor cell proliferation assay used to test the compounds of the present invention involves a readout called Cell Titer-Glow® Luminescent Cell Viability Assay developed by Promega® (Cunningham, B A “A Growing Issue: Cell Proliferation Assays, Modern kits ease quantification of cell growth” The Scientist 2001, 15(13), 26, and Crouch, S P et al., “The use of ATP bioluminescence as a measure of cell proliferation and cytotoxicity” Journal of Immunological Methods 1993, 160, 81-88), that measures inhibition of cell proliferation. Generation of a luminescent signal corresponds to the amount of ATP present, which is directly proportional to the number of metabolically active (proliferating) cells.
# (§2) A431 cells (human epidermoid carcinoma, ATCC # HTB-20) and BT474 (human breast carcinoma, ATCC # CRL-1555) were plated at a density of 2.5×10^3 cells/well in 96 well black-clear bottom tissue culture plates in RPMI media with 10% Fetal Bovine Serum and incubated at 37° C. Twenty-four h later, test compounds are added at a final concentration range from as high 100 μm to as low 64 pM depend on the activities of the tested compounds in serial dilutions at a final DMSO concentration of 0.1%. Cells were incubated for 72 h at 37° C. in complete growth media after addition of the test compound. After 72 h of drug exposure, the plates were equilibrated to room temperature for approximately 30 min. Then, using a Promega Cell Titer Glo Luminescent® assay kit, lysis buffer containing 100 microliters of the enzyme luciferase and its substrate, luciferin mixture, was added to each well. The plates were mixed for 2 min on orbital shaker to ensure cell lysis and incubated for 10 min at room temperature to stabilize luminescence signal. The samples were read on VICTOR 2 using Luminescence protocol, and analyzed with Analyze5 software to generate IC50 values.
# (§3) For determination of IC50's, a linear regression analysis can be used to determine drug concentration which results in a 50% inhibition of cell proliferation using this assay format. In A431 cells, Examples 1-7, 9-11, 14-18, and 20-21 have IC50's≦5 μM; whereas examples 8, 12, 13, 19, and 22 have IC50's≦50 μM. In BT474 cells, examples 1-7, 9-11, 13-18, and 20-22 have IC50's≦50 μM; whereas examples 8, 12, and 19 have IC50's≦50 μM.
# [2] = test system: BT474 (human breast carcinoma); test: In vitro tumor cell proliferation assay (Cell Titer-Glo luminescent cell viability), BT474 cells; assay type: cell-based; settings: BT-474, 72 h drug exposure, ATP luminescence readout, read-out: IC50, anti-proliferative activity (inhibition of cell proliferation) in BT474 cells
# Description: as §1, §2, §3
SMILES,IC50 [1] [µM],IC50 [2] [µM]
CN(C)[C@@H]1CCN(CCn2cc3c(ccc4c3sc3ncnc(Nc5ccc(F)c(Cl)c5)c34)n2)C1 [Example 4],≤ 5,≤ 50
"Fc1ccc(Nc2ncnc3sc4c5cn(CCNCCN6CCOCC6)nc5ccc4c23)cc1Cl [Example 5, N-(3-chloro-4-fluorophenyl)-2-{2-[(2-morpholin-4-ylethyl)amino]ethyl}-2H-pyrimido[5′,4′:4,5]thieno[2,3-e]indazol-6-amine]",≤ 5,≤ 50
"Fc1ccc(Nc2ncnc3sc4c5cn(CCN6CCOCC6)nc5ccc4c23)cc1Cl [Example 9, N-(3-chloro-4-fluorophenyl)-2-(2-morpholin-4-ylethyl)-2H-pyrimido[5′,4′:4,5]thieno[2,3-e]indazol-6-amine]",≤ 5,≤ 50
"Fc1ccc(Nc2ncnc3sc4c5cn(CCN6CCNCC6)nc5ccc4c23)cc1Cl [Example 10, N-(3-chloro-4-fluorophenyl)-2-(2-piperazin-1-ylethyl)-2H-pyrimido[5′,4′:4,5]thieno[2,3-e]indazol-6-amine]",≤ 5,≤ 50
"CN1CCN(CCn2cc3c(ccc4c3sc3ncnc(Nc5ccc(F)c(Cl)c5)c34)n2)CC1 [Example 11, N-(3-chloro-4-fluorophenyl)-2-[2-(4-methylpiperazin-1-yl)ethyl]-2H-pyrimido[5′,4′:4,5]thieno[2,3-e]indazol-6-amine]",≤ 5,≤ 50
"Fc1ccc(Nc2ncnc3sc4c5cn(CCn6ccnc6)nc5ccc4c23)cc1Cl [Example 12, N-(3-chloro-4-fluorophenyl)-2-[2-(1H-imidazol-1-yl)ethyl]-2H-pyrimido[5′,4′:4,5]thieno[2,3-e]indazol-6-amine]",≤ 50,≤ 50
"CN(C)[C@H]1CCN(CCn2cc3c(ccc4c3sc3ncnc(Nc5ccc(F)c(Cl)c5)c34)n2)C1 [Example 13, N-(3-chloro-4-fluorophenyl)-2-{2-[(3S)-3-(dimethylamino)pyrrolidin-1-yl]ethyl}-2H-pyrimido[5′,4′:4,5]thieno[2,3-e]indazol-6-amine]",≤ 50,≤ 50
"Fc1ccc(Nc2ncnc3sc4c5cn(CCN6CCCCC6)nc5ccc4c23)cc1Cl [Example 16, N-(3-chloro-4-fluorophenyl)-2-(2-piperidin-1-ylethyl)-2H-pyrimido[5′,4′:4,5]thieno[2,3-e]indazol-6-amine]",≤ 5,≤ 50
"Fc1ccc(Nc2ncnc3sc4c5cn(CCN6CCCC6)nc5ccc4c23)cc1Cl [Example 17, N-(3-chloro-4-fluorophenyl)-2-(2-pyrrolidin-1-ylethyl)-2H-pyrimido[5′,4′:4,5]thieno[2,3-e]indazol-6-amine]",≤ 5,≤ 50
"Fc1ccc(Nc2ncnc3sc4c5cn(CCN6CCN(Cc7ccncc7)CC6)nc5ccc4c23)cc1Cl [Example 18, N-(3-chloro-4-fluorophenyl)-2-{2-[4-(pyridin-4-ylmethyl)piperazin-1-yl]ethyl}-2H-pyrimido[5′,4′:4,5]thieno[2,3-e]indazol-6-amine]",≤ 5,≤ 50
"CN(C)[C@H]1CCN(CCn2ncc3c4sc5ncnc(Nc6ccc(F)c(Cl)c6)c5c4ccc32)C1 [Example 20, N-(3-chloro-4-fluorophenyl)-3-{2-[(3S)-3-(dimethylamino)pyrrolidin-1-yl]ethyl}-3H-pyrimido[5′,4′:4,5]thieno[2,3-e]indazol-6-amine]",≤ 5,≤ 50
"OCCn1ncc2c3sc4ncnc(Nc5ccc(OCc6cccc(F)c6)c(Cl)c5)c4c3ccc21 [Example 21, 2-[6-({3-chloro-4-[(3-fluorobenzyl)oxy]phenyl}amino)-3H-pyrimido[5′,4′:4,5]thieno[2,3-e]indazol-3-yl]ethanol]",≤ 5,≤ 50
"Clc1cc(Nc2ncnc3sc4c(ccc5c4cnn5CCBr)c23)ccc1OCc1ccccn1 [Example 22, 3-(2-bromoethyl)-N-[3-chloro-4-(pyridin-2-ylmethoxy)phenyl]-3H-pyrimido[5′,4′:4,5]thieno[2,3-e]indazol-6-amine]",≤ 50,≤ 50

# More lines, now with the values ahead:
IC50 [1] [µM],IC50 [2] [µM],SMILES
≤ 5,≤ 50,"OCCn1cc2c(ccc3c2sc2ncnc(Nc4ccc(F)c(Cl)c4)c23)n1 [Example 1, 2-{6-[(3-chloro-4fluorophenyl)amino]-2H-pyrimido[5′,4′:4,5]thieno[2,3-e]indazol-2-yl}ethanol]"
≤ 5,≤ 50,"CS(=O)(=O)OCCn1cc2c(ccc3c2sc2ncnc(Nc4ccc(F)c(Cl)c4)c23)n1 [Example 2, 2-{6-[(3-chloro-4fluorophenyl)amino]-2H-pyrimido[5′,4′:4,5]thieno[2,3-e]indazol-2-yl}ethylmethanesulfonate]"
≤ 5,≤ 50,"CS(=O)(=O)CCNCCn1cc2c(ccc3c2sc2ncnc(Nc4ccc(F)c(Cl)c4)c23)n1 [Example 3, N-(3-chloro-4-fluorophenyl)-2-(2-{[2-(methylsulfonyl)ethyl]amino}ethyl)-2H-pyrimido[5′,4′:4,5]thieno[2,3-e]indazol-6-amine]"
≤ 5,≤ 50,"COCCNCCn1cc2c(ccc3c2sc2ncnc(Nc4ccc(F)c(Cl)c4)c23)n1 [Example 6, N-(3-chloro-4-fluorophenyl)-2-{2-[(2-methoxyethyl)amino]ethyl}-2H-pyrimido[5′,4′:4,5]thieno[2,3-e]indazol-6-amine]"
≤ 5,≤ 50,"OCCNCCn1cc2c(ccc3c2sc2ncnc(Nc4ccc(F)c(Cl)c4)c23)n1 [Example 7, 2-[(2-{6-[(3-chloro-4-fluorophenyl)amino]-2H-pyrimido[5′,4′:4,5]thieno[2,3-e]indazol-2-yl}ethyl)amino]ethanol]"
≤ 50,≤ 50,"COCCN(CCOC)CCn1cc2c(ccc3c2sc2ncnc(Nc4ccc(F)c(Cl)c4)c23)n1 [Example 8, 2-{2-[bis(2-methoxyethyl)amino]ethyl}-N-(3-chloro-4-fluorophenyl)-2H-pyrimido[5′,4′:4,5]thieno[2,3-e]indazol-6-amine]"
≤ 5,≤ 50,"OCCN(CCO)CCn1cc2c(ccc3c2sc2ncnc(Nc4ccc(F)c(Cl)c4)c23)n1 [Example 14, 2,2′-[(2-{6-[(3-chloro-4-fluorophenyl)amino]-2H-pyrimido[5′,4′:4,5]thieno[2,3-e]indazol-2-yl}ethyl)imino]diethanoltrifluoroacetate (salt)]"
≤ 5,≤ 50,"COCCN1CCN(CCn2cc3c(ccc4c3sc3ncnc(Nc5ccc(F)c(Cl)c5)c34)n2)CC1 [Example 15, N-(3-chloro-4-fluorophenyl)-2-{2-[4-(2-methoxyethyl)piperazin-1-yl]ethyl}-2H-pyrimido[5′,4′:4,5]thieno[2,3-e]indazol-6-amine]"
≤ 50,≤ 50,"COCCN(C)CCn1cc2c(ccc3c2sc2ncnc(Nc4ccc(F)c(Cl)c4)c23)n1 [Example 19, N-(3-chloro-4-fluorophenyl)-2-{2-[(2-methoxyethyl)(methyl)amino]ethyl}-2H-pyrimido[5′,4′:4,5]thieno[2,3-e]indazol-6-amine]"

# Reference: patent US7511048B2, “Pyrimidothienoindazoles” (Bayer Pharmaceuticals Corporation, priority 2004, dated 2009)
